# In patent publication US20040072775A1, “Enhancing the sensitivity of tumor cells to therapies” (priority 1994, published 2004):
# Columns and labels:
# Assay type in all cases: cell-based, human
# [1] = test system: empty vector-transduced T98G cells; test: clonogenic assay after one hour cisplatin exposure, empty vector-transduced cells; settings: clones counted 7 to 10 days later, read-out: concentration of cisplatin needed to achieve a 50% reduction in colony count
# [2] = test system: T98G glioblastoma cells; test: clonogenic assay after one hour cisplatin exposure, parental cells; settings: clones counted 7 to 10 days later, read-out: concentration of cisplatin needed to achieve a 50% reduction in colony count
# Experimental: 1). Cells. T98G glioblastoma cells (Mercer et al., “Negative growth regulation in a glioblastoma tumor cell line that conditionally expresses human wild-type p53.” (1990) Proc. Natl. Acad. Sci., USA, 87:6166-6170) were obtained from ATCC and cultured at 37° C. in 10% CO2 in Dulbecco's Modified Eagles Medium supplemented with 10% heat inactivated fetal bovine serum, gentamycin, nonessential amino acids, and sodium pyruvate. […] 5). Control parental T98G cells and T98 Gp53 cells which had been adapted 2 weeks to culture in the absence of the antibiotics G418 were plated in 24 well plates at about 2×10^4 cells per well. The next day they were exposed for one hour to varying concentrations of cisplatin (a chemotherapeutic agent) from 10 to 40 μM in increments of 10 μM. The cisplatin was removed after one hour and replaced with complete medium (DMEM+10% Fetal Bovine Serum) and cells were allowed to grow for 7 days. After 7 days, cells were counted or stained with crystal violet. In the latter case, absorbance at 540 nm is proportional to cell viability. For clonogenic assays, cells were replated following treatment in 6 well plates at 500-1000 cells per well. Clones were counted 7 to 10 days later by staining in 0.5% methylene blue, 70% ETOH. Colony counts from p53 transfectants and parental T98G glioblastoma cells were compared. […] Subsequent assays confirmed this increased sensitivity. […]
# [3] = test system: T98 Gp53 cells; test: clonogenic/growth assay after one hour cisplatin exposure, cells transduced with wild-type p53 gene
# Experimental: 1). Cells. T98G glioblastoma cells (Mercer et al., “Negative growth regulation in a glioblastoma tumor cell line that conditionally expresses human wild-type p53.” (1990) Proc. Natl. Acad. Sci., USA, 87:6166-6170) were obtained from ATCC and cultured at 37° C. in 10% CO2 in Dulbecco's Modified Eagles Medium supplemented with 10% heat inactivated fetal bovine serum, gentamycin, nonessential amino acids, and sodium pyruvate.
# 2). Plasmids. A plasmid (pLp53RNL) containing the wild-type p53 gene and the neomycin (G418) resistance gene was used. The plasmid pLp53RNL was kindly provided by Dr. Martin Haas (University of California, San Diego), and has been previously described (Cheng et al., “Suppression of acute lymphoblastic leukemia by the human wild-type p53 gene,” (1992) Cancer Res., 53:222-226). This plasmid carries the retroviral sequence Lp53RNL in which wild-type p53 expression is driven from the Moloney murine leukemia virus (MoMLV) LTR. The neomycin resistance gene is driven from the Rous Sarcoma Virus (RSV) promoter.
# 3). Transfections. The plasmid was introduced into T98G cells using cationic liposomes. […]
# 5). […] After 7 days, cells were counted or stained with crystal violet. In the latter case, absorbance at 540 nm is proportional to cell viability. […] Clones were counted 7 to 10 days later by staining in 0.5% methylene blue, 70% ETOH. […]
smiles,measurement,setting,value
N.N.[Cl][Pt][Cl] [cisplatin],IC50,[1],~30 µM
same,IC50,[2],~30 µM
same,IC50,"[3]; cells transduced with wild-type p53 gene, one hour exposure, clones counted 7 to 10 days later, read-out: concentration of cisplatin needed to achieve a 50% reduction in colony count",15 to 20 µM
same,sensitivity of T98 Gp53 cells to the effects of cisplatin compared with parental T98G cells (FIG. 1),"[3]; cisplatin 10 to 40 μM, one hour",considerably more sensitive
